Test results from patent EP0426314B1, “HIV related peptides” (VIRAL TECHNOLOGIES, INC., priority 1989, dated 1995).

Columns and labels:
[1] = tested on: sera from four Rhesus Monkeys given live HIV-1; test: ELISA of sera from Rhesus monkeys given live HIV-1 for antibodies to p17 peptides (Figure 5); type: binding; conditions: result in words
Excerpt: • Figure 1 is a schematic drawing illustrating the proposed orientation for the p17 gag protein of HIV; • Figure 2 is a chart depicting the primary amino acid sequences of HIV-1 p17 (strain HB10) and also of the p17 proteins of HIV-2 and SIV; • Figure 3 is another chart depicting the primary amino acid sequence of the peptides in p17; • Figure 4 is a graph plotting antibody titers of HIV p17 peptides in rabbits immunized with native HIV p17; and • Figure 5 is a bar graph illustrating the results of ELISA analysis of sera from 4 Rhesus monkeys exposed to live HIV antibodies to the p17 peptide fragments of this invention.
In another test, sera from four Rhesus Monkeys given live HIV-1 were also evaluated for antibodies to Peptides A, B, C, D and E and the results are shown in Figure 5. […] Sera from individuals who had been naturally exposed to the HIV virus and were seropositive for p17 were also evaluated.

[2] = tested on: antibodies of a rabbit immunized with native (intact) HIV p17; test: Antibody titers to p17 peptides in a rabbit immunized with native HIV p17 (Figure 4); type: binding; conditions: rabbit immunized with HPLC-purified native HIV p17, synthetic peptide analogs, result in words

Row | Substance | antibody response [1] | antibody titers [2]
1 | Peptide B: p17 gag HIV protein fragment, positions 33-50, formula (III); sequence only in image I00004 (IVWASRELERFAVNPGLL; Matrix protein p17; UniProt P04591 34-51, looked up, fragment) | strong antibody response in at least one of the challenged monkeys | –
2 | Peptide A: p17 gag HIV protein fragment, positions 1-32, formula (II); sequence only in image I00003 (GARASVLSGGELDRWEKIRLRPGGKKKYKLKH; Matrix protein p17; UniProt P04591 2-33, looked up, fragment) | strong antibody response in at least one of the challenged monkeys | –
3 | Peptide C: p17 gag HIV protein fragment, positions 51-84, formula (IV); sequence only in image I00005 (ETSEGCRQILGQLQPSLQTGSEELRSLYNTVATL; Matrix protein p17; UniProt P04591 52-85, looked up, fragment) | strong antibody response in at least one of the challenged monkeys | highest titers
